One data set concerns cataleptic syndrome. The data set is described as follows: Cataleptogenic effects (cataleptic syndrome, method of Wirth et al.). Format: in vivo, rats, Sprague-Dawley. The conditions noted are these: dose 100 mg/kg ip; cataleptic animals / animals per dose; tested 30 to 300 min after administration. The method, then: The cataleptic syndrome was tested according to the method described by Wirth et al. (Arch. Int. Pharmacodyn. Ther. 115, 1-31, 1958). The animals (male rats, Sprague-Dawley bodyweight 210-225 g; n/dose=4) were regarded as cataleptic if they remained in an abnormal posture for more than 15 sec, i.e. one foreleg an a 9-cm-high piece of cork. The animals were tested 30m 60, 120, 180 and 300 min after intraperitoneal administration of the test compound.

For another data set, the system named is homer mRNA. The data set is described as follows: Homer gene expression in brain by in situ hybridization histochemistry. The format is in vivo, Sprague-Dawley rats. The conditions noted are these: for Homer gene expression induced by treatment with amphetamine: brain frontal cortex, amphetamine plus compound. The method, then: Adult Sprague-Dawley rats (250 g) were maintained in normal environmental conditions with free access to food and water ab libitum. Animals were treated with haloperidol (0.5 and 5 mg/kg) or saline. Naive (non-treated) animals were used as additional controls. Animals were also treated with amphetamine or with amphetamine and MPEP or SIB-1893 as described in example 18b. The animals were sacrificed by decapitation 90 minutes after treatment. Whole brain was rapidly removed from the skull, frozen in dry ice and stored at -30°C. Rat brain sections (15 μm) were obtained at -20°C in a cryostat, mounted in gelatine-coated slides and stored at -30°C until used. Olygonucleotide sequences 40 base length were selected from the homer rat gene sequence published in the GENEBANK (accession number: U92079). Antisense oligonucleotide homerAT ([NT]) was complementary to bases 559 to 599. Antisense oligonucleotide homerBT ([NT]) was complementary to bases 894-934. The corresponding sense oligonucleotides (homerAS and homerBS) were used as control probes. Synthesis was performed in a 395 Applied Biosystems DNA Synthesizer. Purified oligonucleotides were dissolved in DEPC-treated water and stored at -30°C until use. Labelling of synthetic oligoprobes was performed using a deoxynucleotidyl-transferase (TdT) labelling kit (NEP-100, NEN, Bad-Homburg, Germany). Briefly, 5 pmol of probe were incubated (2 hr) with TdT (36 units) in presence of 50 pmol of (^35S] dATP (NEN) and Cl2Co. […] Labelling efficacy was checked by paper chromatography in phosphate buffer system. Homer gene expression in rat brain was studied using in situ hybridization techniques well known in the art. In situ hybridization was performed as previously described (Garcia-Ladona et al., 1994). Briefly, Tissue sections were fixed with paraformaldehyde in PBS and treated (min) with pronase (0.25 mg/l), rapidly washed, dehydrated by consecutive incubation with 60%, 80%, 90% and 100% ethanol, rapidly dried and used for hybridization. […]

For data set [1], the system named is methamphetamine-induced hyperactivity. The data set is described as follows: Methamphetamine antagonism (methamphetamine-induced hyperactivity, measurement of locomotor activity). The conditions noted are these: drug ip 30 min prior to methamphetamine 1 mg/kg po; counts 15 to 60 min after start of measurement. Format: in vivo, Mice (NMRI). The method, then:
Methamphetamine antagonism was tested by recording methamphetamine-induced hyperactivity (measurement of locomotor activity). Mice (NMRI, 21-26 g; female) received drug or vehicle, intraperitoneally, 30 min prior to methamphetamine (MET, 1 mg/kg po). Locomotor activity was recorded in cages equipped with light beams (2 mice/cage/dose) for 1 h, starting 30 min after MET. For calculation of drug effects the counts recorded during the time period of 15 to 60 min after start of the measurement were selected. The control value was calculated as the difference between the counts recorded for the methamphetamine group and the vehicle-treated group during the same time period.

On to `Cc1cccc(C#Cc2ccccc2)n1.Cl` [BSF 470214, 2-methyl-8-(phenylethynyl)-pyridine hydrochloride], for which, in the data set with cataleptic syndrome, the “Cataleptogenic effect [x/n] at dose [mg/kg ip]” value is on record as 0/4 at dose 100. For the same compound, the “Homer gene expression induced by treatment with amphetamine” value in the data set on homer mRNA is “reduced”. The “Methamphetamine antagonism ED50” value in data set [1] is 51.2 mg/kg ip.
With `Cc1cccc(C=Cc2ccccc2)n1` [BSF 470213, 2-methyl-6-(2-phenylethenyl)-pyridine], the “Cataleptogenic effect [x/n] at dose [mg/kg ip]” value in the data set on cataleptic syndrome is 0/4 at dose 100. In the data set on homer mRNA, the “Homer gene expression induced by treatment with amphetamine” value is reported as “reduced”. The “Methamphetamine antagonism ED50” value in data set [1] was determined as 53.4 mg/kg ip.
Consider `O=C(CCCN1CCC(O)(c2ccc(Cl)cc2)CC1)c1ccc(F)cc1` [haloperidol], for which, in the data set on homer mRNA (haloperidol 0.5 and 5 mg/kg vs controls, rat brain, 90 minutes after treatment), the “homer mRNA transcripts (in situ hybridization images)” value is on record as “higher levels in haloperidol treated animals than in controls”.

(Values after patent publication EP1900360A1, “Homer a new target of treating psychiatric disorders” (Abbott GmbH & Co. KG, priority 1998, dated 2000).)
